Measured values: patent US20230293542A1, “SENSORY STIMULATING PSYCHOTROPIC DRUG” (KANSAI MEDICAL UNIVERSITY, priority 2020, published 2023)

Tested on: C57/BL6 mice
Experiment: Contextual fear conditioning in the presence of thiazoline-related fear odor (inhibition of fear memory formation), freezing behavior
Type: in vivo
Details: filter paper impregnated with 100 μl or 10 μl of 2MT during fear conditioning; freezing measured for 10 min on day 3 with Eugenol; compared to group that learned with no odor; FIG. 1
Experimental: • Day 0: About 2-month-old C57/BL6 mice were placed in an electric shock chamber, and 2-second electric shock (0.6 mA) was given 6 times at 2-minute intervals for 12 min for contextual fear conditioning. Conditioning was performed under 4 conditions of no odor condition (control; n=6) (group 1) and an electric shock chamber with filter paper impregnated with 100 μl of 2-methyl-2-thiazoline (2MT) condition (2MT; n=6) (group 2), or no odor condition (control; n=6) (group 3) and an electric shock chamber with filter paper impregnated with 10 μl of 2-methyl-2-thiazoline (2MT) condition (2MT; n=6) (group 4). • Day 1: Mice were placed in the electric shock chamber (no odor) used for learning on the previous day, and freezing behavior was measured for 10 min using dedicated software (Freeze frame 2; ActiMetrics). • Day 3: The mice of group 1 and group 2 were placed in an electric shock chamber with filter paper impregnated with 100 μl of Eugenol, and freezing behavior was measured for 10 min. The mice in group 3 and group 4 were placed in an electric shock chamber with filter paper impregnated with 10 μl of Eugenol, and freezing behavior was measured for 10 min.
A student's t-test was also performed between the group with no odor and the group with 2MT (**p<0.01, ***p<0.001).

Row | Structure (SMILES) | freezing behavior in the context with odor (eugenol odor context; day 3)
1 | CC1=NCCS1 [2-methyl-2-thiazoline] | marked decrease

Same assay, conditions: filter paper impregnated with 100 μl or 10 μl of 2MT in electric shock chamber during fear conditioning; freezing measured for 10 min on day 1; compared to no odor group; FIG. 1

Row | Structure (SMILES) | freezing behavior in the no odor context (day 1)
2 | CC1=NCCS1 [2-methyl-2-thiazoline] | remarkably decreased

Tested on: C57/BL6 mice
Experiment: Contextual fear conditioning 30 min after intraperitoneal administration (inhibition of fear memory formation), freezing behavior
Type: in vivo
Details: intraperitoneal 200 μl of 1 v/v % solution in saline, 30 min before conditioning; freezing for 10 min on day 1, no odor; compared with saline-administered group (=100%); n=6; FIG. 2-12
Experimental: • Day 0: To about 2 month-old C57/BL6 mice was intraperitoneally administered 200 μl of saline, or 1 v/v % 2-methyl-2-thiazoline solution (dissolved in saline), or 1 v/v % 5-methylthiazole solution (dissolved in saline), or 1 v/v % 4-ethyl-2-methyl-2-thiazoline solution (dissolved in saline), or 1 v/v % 2,4,5-trimethyl-3-thiazoline solution (dissolved in saline), or 1 v/v % thiomorpholine solution (dissolved in saline), or 1 v/v % allyl isothiocyanate (AITC) solution (dissolved in saline), or 1 v/v % 2,3-diethylpyrazine solution (dissolved in saline), or 1 v/v % 2,6-lutidine solution (dissolved in saline) (each condition n=6). Thirty minutes after the administration, the mice were placed in an electric shock chamber, and 2-second electric shock (0.6 mA) was given 6 times at 2-minute intervals for 12 min for contextual fear conditioning. • Day 1: Mice were placed in the electric shock chamber (no odor) used for learning on the previous day, and freezing behavior was measured for 10 min using dedicated software (Freeze frame 2).
In addition, a student's t-test was performed between the saline-administered group and each compound-administered group (*p<0.05, ***p<0.001).
• Day 0: To about 2 month-old C57/BL6 mice was intraperitoneally administered 200 μl of saline or 1 v/v % 2-(allylthio)-2-thiazoline solution (dissolved in saline) (each condition n=6). Thirty minutes after the administration, the mice were placed in an electric shock chamber, and 2-second electric shock (0.6 mA) was given 6 times at 2-minute intervals for 12 min for contextual fear conditioning. • Day 1: Mice were placed in the electric shock chamber (no odor) used for learning on the previous day, and freezing behavior was measured for 10 min using dedicated software (Freeze frame 2).
A student's t-test was performed between the saline-administered group and the 2-(allylthio)-2-thiazoline-administered group (*p<0.05).
• Day 0: To about 2 month-old C57/BL6 mice was intraperitoneally administered 200 μl of saline or 1 v/v % 4-tert-butyl-2-methylthiazole solution (dissolved in saline) (each condition n=6). Thirty minutes after the administration, the mice were placed in an electric shock chamber, and 2-second electric shock (0.6 mA) was given 6 times at 2-minute intervals for 12 min for contextual fear conditioning. • Day 1: Mice were placed in the electric shock chamber (no odor) used for learning on the previous day, and freezing behavior was measured for 10 min using dedicated software (Freeze frame 2).
• Day 0: To about 2 month-old C57/BL6 mice was intraperitoneally administered 200 μl of saline or 1 v/v % 2-ethoxythiazole solution (dissolved in saline) (each condition n=6). Thirty minutes after the administration, the mice were placed in an electric shock chamber, and 2-second electric shock (0.6 mA) was given 6 times at 2-minute intervals for 12 min for contextual fear conditioning. • Day 1: Mice were placed in the electric shock chamber (no odor) used for learning on the previous day, and freezing behavior was measured for 10 min using dedicated software (Freeze frame 2).
• Day 0: To about 2 month-old C57/BL6 mice was intraperitoneally administered 200 μl of saline or 1 v/v % 2-methylbenzothiazole solution (dissolved in saline) (each condition n=6). Thirty minutes after the administration, the mice were placed in an electric shock chamber, and 2-second electric shock (0.6 mA) was given 6 times at 2-minute intervals for 12 min for contextual fear conditioning. • Day 1: Mice were placed in the electric shock chamber (no odor) used for learning on the previous day, and freezing behavior was measured for 10 min using dedicated software (Freeze frame 2).
• Day 0: To about 2 month-old 057/BL6 mice was intraperitoneally administered 200 μl of saline or 1 v/v % 2-mercaptothiazole solution (dissolved in saline) (each condition n=6). […]

Row | Structure (SMILES) | frequency of freezing behavior during the test (day 1)
3 | CCc1nccnc1CC [2,3-diethylpyrazine] | significant decrease
4 | CC1=NC(C)SC1C (centres unmarked) [2,4,5-trimethyl-3-thiazoline] | significant decrease
5 | Cc1cccc(C)n1 [2,6-lutidine] | significant decrease
6 | C=CCSC1=NCCS1 [2-(allylthio)-2-thiazoline] | significant decrease
7 | CC(=O)c1ccc[nH]1 [2-acetylpyrrole] | significant decrease
8 | NC1=NCCS1 [2-amino-2-thiazoline] | significant decrease
9 | CCOc1nccs1 [2-ethoxythiazole] | significant decrease
10 | Sc1nccs1 [2-mercaptothiazole] | significant decrease
11 | CC1=NCCS1 [2-methyl-2-thiazoline] | significant decrease
12 | Cc1nc2ccccc2s1 [2-methylbenzothiazole] | significant decrease
13 | Cc1nccs1 [2-methylthiazole] | significant decrease
14 | CC1CNCCS1 (centres unmarked) [2-methylthiomorpholine] | significant decrease
15 | CCC1CSC(C)=N1 (centres unmarked) [4-ethyl-2-methyl-2-thiazoline] | significant decrease
16 | Cc1nc(C(C)(C)C)cs1 [4-tert-butyl-2-methylthiazole] | significant decrease
17 | Cc1cncs1 [5-methylthiazole] | significant decrease
18 | C=CCN=C=S [AITC, allyl isothiocyanate] | significant decrease
19 | C=C(C)CN=C=S [methallyl isothiocyanate] | significant decrease
20 | C1CSCCN1 [thiomorpholine] | significant decrease
